Laboratory results: patent publication US20260001928A1 (CORTERIA PHARMACEUTICALS, priority 2022, published 2026)
*1 amine or outer side, *2 acyl side, *3 side chain or, on linkers, in order; H or OH if unused. Where a SMILES comes first, the peptide text is derived from it. Side-chain parts run from the residue outwards. [ ]: non-standard residue; d: D form. The star is where a group is joined. C18 diacid = O=C(O)CCCCCCCCCCCCCCCCC(=O)*; C16 diacid = O=C(O)CCCCCCCCCCCCCCC(=O)*; γGlu = O=C(O)[C@H](CCC(=O)[*:2])N[*:1]; NMeI = CC[C@H](C)[C@H](NC)C(=O)O; AEEA = NCCOCCOCC(=O)O; Aib = CC(C)(N)C(=O)O

Biological target: T1, CFR1R receptor (Homo sapiens, UniProt P34998)
T1 construct: host or cells: CHO-K1 (clone 2)
T1 sequence (P34998 24-415): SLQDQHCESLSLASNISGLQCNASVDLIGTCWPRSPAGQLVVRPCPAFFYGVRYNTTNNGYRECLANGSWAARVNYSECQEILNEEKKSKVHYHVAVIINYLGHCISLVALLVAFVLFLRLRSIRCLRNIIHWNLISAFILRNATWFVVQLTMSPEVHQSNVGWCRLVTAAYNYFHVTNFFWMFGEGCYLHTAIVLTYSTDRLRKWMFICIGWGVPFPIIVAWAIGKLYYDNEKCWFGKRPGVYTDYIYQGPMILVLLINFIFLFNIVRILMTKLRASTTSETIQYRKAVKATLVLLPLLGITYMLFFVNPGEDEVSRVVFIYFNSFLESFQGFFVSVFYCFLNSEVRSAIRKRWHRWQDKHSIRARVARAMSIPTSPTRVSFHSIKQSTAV
Test: Activity at anti-target CFR1R receptor, cAMP assay in CRF1R-overexpression CHO-K1 cells
Type: cell-based
Conditions: 100% = Sauvagine at 100 nM
Protocol: Assessment of activity at anti-target CFR1R receptor is done using the same procedure as the one described for the TeloHEAC cell line. The CRF1R-overexpression CHO-K1 cell line clone 2 was purchased from PerkinElmer. Cells were grown in a 10 cm dish at 37° C./5% CO2 in medium (F12 (Hams)/10% FBS/400 μg/ml G418) to near confluence. At that stage, cells were harvested, resuspended to 10 million/mL in culture medium without G418 and with 10% DMSO. 1 mL vial aliquots were slowly frozen to −80° C. in isopropanol and then transferred in liquid nitrogen for storage. These vials were used to run the experiment following the procedure reported in the previous paragraph, except for the compound used in the control well to define the 100% activation (Sauvagine at 100 nM) and the cell density (final cell density: 4000 cells/well)

Emax (% I)	SMILES	other results
4	CC[C@H](C)[C@H](NC(C)=O)C(=O)N[C@H](C(=O)N[C@@H](CC(C)C)C(=O)N[C@@H](CO)C(=O)N[C@@H](CC(C)C)C(=O)N[C@@H](CC(=O)O)C(=O)N[C@@H](C(=O)N1CCC[C@H]1C(=O)N[C@H](C(=O)N[C@@H](CCCCN)C(=O)N[C@@H](CC(C)C)C(=O)N[C@@H](CCCCNC(=O)CC[C@H](NC(=O)CCCCCCCCCCCCCCC(=O)O)C(=O)O)C(=O)N[C@@H](CCC(N)=O)C(=O)N[C@H](C(=O)N[C@@H](CC(C)C)C(=O)N[C@@H](CC(C)C)C(=O)N[C@@H](CCCCN)C(=O)N[C@@H](CCC(N)=O)C(=O)N[C@@H](CCC(=O)O)C(=O)N[C@@H](CCCNC(=N)N)C(=O)N[C@@H](CCC(N)=O)C(=O)N[C@@H](CCCCN)C(=O)N[C@@H](CCCCN)C(=O)N[C@@H](CCC(N)=O)C(=O)N[C@@H](CCCNC(=N)N)C(=O)N[C@@H](CCC(=O)O)C(=O)N[C@@H](CCC(N)=O)C(=O)N[C@@H](C)C(=O)N[C@@H](CCC(=O)O)C(=O)N[C@@H](CCCCN)C(=O)N[C@@H](CC(N)=O)C(=O)N[C@@H](CCCCN)C(=O)N[C@@H](CCC(N)=O)C(=O)N[C@H](C(=O)N[C@@H](CC(C)C)C(=O)N[C@@H](CCC(=O)O)C(=O)N[C@@H](CCC(N)=O)C(=O)N[C@H](C(N)=O)C(C)C)[C@@H](C)CC)[C@@H](C)CC)[C@@H](C)CC)C(C)C)C(C)C [SEQ ID No. 2, reference compound] (Ac-IVLSLD[dV]PIKLK([γGlu-C16 diacid])QILLKQERQKKQREQAEKNKQILEQV-NH2)	–
–	CC[C@H](C)[C@H](NC(C)=O)C(=O)N[C@H](C(=O)N[C@@H](CC(C)C)C(=O)N[C@@H](CO)C(=O)N[C@@H](CC(C)C)C(=O)N[C@@H](CC(=O)O)C(=O)N[C@@H](C(=O)N1CCC[C@H]1C(=O)N[C@H](C(=O)N[C@@H](CCCCN)C(=O)N[C@@H](CC(C)C)C(=O)N[C@@H](CCCCNC(=O)CC[C@H](NC(=O)CCCCCCCCCCCCCCCCC(=O)O)C(=O)O)C(=O)N[C@@H](CCCCN)C(=O)N[C@H](C(=O)N[C@@H](CC(C)C)C(=O)N[C@@H](CC(C)C)C(=O)N[C@@H](CCC(=O)O)C(=O)N[C@@H](CCC(N)=O)C(=O)N[C@@H](CCC(=O)O)C(=O)N[C@@H](CCCCN)C(=O)N[C@@H](CCC(N)=O)C(=O)N[C@@H](CCCCN)C(=O)N[C@@H](CCCCN)C(=O)N[C@@H](CCC(N)=O)C(=O)N[C@@H](CCCNC(=N)N)C(=O)N[C@@H](CCC(=O)O)C(=O)N[C@@H](CCC(N)=O)C(=O)N[C@@H](C)C(=O)N[C@@H](CCC(=O)O)C(=O)N[C@H](C(=O)N[C@@H](CC(N)=O)C(=O)N[C@@H](CCC(=O)O)C(=O)N[C@@H](CCC(N)=O)C(=O)N[C@H](C(=O)N[C@@H](CC(C)C)C(=O)N[C@@H](C)C(=O)N[C@@H](CCC(N)=O)C(=O)N[C@H](C(N)=O)C(C)C)[C@@H](C)CC)[C@@H](C)O)[C@@H](C)CC)[C@@H](C)CC)C(C)C)C(C)C [SEQ ID No. 130, reference compound] (Ac-IVLSLD[dV]PIKLK([γGlu-C18 diacid])KILLEQEKQKKQREQAETNEQILAQV-NH2)	Emax (% I) (listed as 13): 24 % I
–	CC[C@H](C)[C@H](NC)C(=O)N[C@H](C(=O)N[C@@H](CC(C)C)C(=O)N[C@@H](CO)C(=O)N[C@@H](CC(C)C)C(=O)N[C@@H](CC(=O)O)C(=O)N[C@@H](C(=O)N1CCC[C@H]1C(=O)N[C@H](C(=O)N[C@@H](CCCCN)C(=O)N[C@@H](CC(C)C)C(=O)N[C@@H](CCCCNC(=O)CC[C@H](NC(=O)CCCCCCCCCCCCCCCCC(=O)O)C(=O)O)C(=O)N[C@@H](CCCCN)C(=O)N[C@H](C(=O)N[C@@H](CC(C)C)C(=O)N[C@@H](CC(C)C)C(=O)N[C@@H](CCC(=O)O)C(=O)N[C@@H](CCC(N)=O)C(=O)N[C@@H](CCC(=O)O)C(=O)N[C@@H](CCCCN)C(=O)N[C@@H](CCC(N)=O)C(=O)N[C@@H](CCCCN)C(=O)N[C@@H](CCCCN)C(=O)N[C@@H](CCC(N)=O)C(=O)N[C@@H](CCCNC(=N)N)C(=O)N[C@@H](CCC(=O)O)C(=O)N[C@@H](CCC(N)=O)C(=O)N[C@@H](C)C(=O)N[C@@H](CCC(=O)O)C(=O)N[C@H](C(=O)N[C@@H](CC(N)=O)C(=O)N[C@@H](CCC(=O)O)C(=O)N[C@@H](CCC(N)=O)C(=O)N[C@H](C(=O)N[C@@H](CC(C)C)C(=O)N[C@@H](C)C(=O)N[C@@H](CCC(N)=O)C(=O)N[C@H](C(N)=O)C(C)C)[C@@H](C)CC)[C@@H](C)O)[C@@H](C)CC)[C@@H](C)CC)C(C)C)C(C)C [SEQ ID No. 142, reference compound] (H-[NMeI]VLSLD[dV]PIKLK([γGlu-C18 diacid])KILLEQEKQKKQREQAETNEQILAQV-NH2)	Emax (% I) (listed as 14): 24 % I
–	CC[C@H](C)[C@H](N)C(=O)N[C@H](C(=O)N[C@@H](CC(C)C)C(=O)N[C@@H](CO)C(=O)N[C@@H](CC(C)C)C(=O)N[C@@H](CC(=O)O)C(=O)N[C@@H](C(=O)N1CCC[C@H]1C(=O)N[C@H](C(=O)N[C@@H](CCCCN)C(=O)N[C@@H](CC(C)C)C(=O)N[C@@H](CCCCNC(=O)COCCOCCNC(=O)COCCOCCNC(=O)CC[C@H](NC(=O)CCCCCCCCCCCCCCC(=O)O)C(=O)O)C(=O)N[C@@H](CCC(N)=O)C(=O)N[C@H](C(=O)N[C@@H](CC(C)C)C(=O)N[C@@H](CC(C)C)C(=O)N[C@@H](CCCCN)C(=O)N[C@@H](CCC(N)=O)C(=O)N[C@@H](CCC(=O)O)C(=O)N[C@@H](CCCNC(=N)N)C(=O)N[C@@H](CCC(N)=O)C(=O)N[C@@H](CCCCN)C(=O)N[C@@H](CCCCN)C(=O)N[C@@H](CCC(N)=O)C(=O)N[C@@H](CCCNC(=N)N)C(=O)N[C@@H](CCC(=O)O)C(=O)N[C@@H](CCC(N)=O)C(=O)N[C@@H](C)C(=O)N[C@@H](CCC(=O)O)C(=O)N[C@@H](CCCCN)C(=O)N[C@@H](CC(N)=O)C(=O)N[C@@H](CCCCN)C(=O)N[C@@H](CCC(N)=O)C(=O)N[C@H](C(=O)N[C@@H](CC(C)C)C(=O)N[C@@H](CCC(=O)O)C(=O)N[C@@H](CCC(N)=O)C(=O)N[C@H](C(N)=O)C(C)C)[C@@H](C)CC)[C@@H](C)CC)[C@@H](C)CC)C(C)C)C(C)C [SEQ ID No. 148, reference compound] (H-IVLSLD[dV]PIKLK([AEEA-AEEA-γGlu-C16 diacid])QILLKQERQKKQREQAEKNKQILEQV-NH2)	Emax (% I) (listed as 2): 63 % I
6	CC[C@H](C)[C@H](N)C(=O)N[C@H](C(=O)N[C@@H](CC(C)C)C(=O)N[C@@H](CO)C(=O)N[C@@H](CC(C)C)C(=O)N[C@@H](CC(=O)O)C(=O)N[C@H](C(=O)N1CCC[C@H]1C(=O)N[C@H](C(=O)N[C@@H](CCCCN)C(=O)N[C@@H](CC(C)C)C(=O)N[C@@H](CCCCNC(=O)COCCOCCNC(=O)COCCOCCNC(=O)CC[C@H](NC(=O)CC[C@H](NC(=O)CCCCCCCCCCCCCCCCC(=O)O)C(=O)O)C(=O)O)C(=O)N[C@@H](CCC(N)=O)C(=O)NC(C)(C)C(=O)N[C@@H](CC(C)C)C(=O)N[C@@H](CC(C)C)C(=O)N[C@@H](CCCCN)C(=O)N[C@@H](CCC(N)=O)C(=O)N[C@@H](CCC(=O)O)C(=O)N[C@@H](CCCNC(=N)N)C(=O)N[C@@H](CCC(N)=O)C(=O)N[C@@H](CCCCN)C(=O)N[C@@H](CCCCN)C(=O)N[C@@H](CCC(N)=O)C(=O)N[C@@H](CCCNC(=N)N)C(=O)N[C@@H](CCC(=O)O)C(=O)N[C@@H](CCC(N)=O)C(=O)N[C@@H](C)C(=O)N[C@@H](CCC(=O)O)C(=O)N[C@@H](CCCCN)C(=O)N[C@@H](CC(N)=O)C(=O)NC(C)(C)C(=O)N[C@@H](CCC(N)=O)C(=O)N[C@H](C(=O)N[C@@H](CC(C)C)C(=O)N[C@@H](CCC(=O)O)C(=O)N[C@@H](CCC(N)=O)C(=O)N[C@H](C(N)=O)C(C)C)[C@@H](C)CC)[C@@H](C)CC)C(C)C)C(C)C [compound 25] (H-IVLSLDVPIKLK([AEEA-AEEA-γGlu-γGlu-C18 diacid])Q[Aib]LLKQERQKKQREQAEKN[Aib]QILEQV-NH2)	–
1	CC[C@H](C)[C@H](NC(C)=O)C(=O)N[C@H](C(=O)N[C@@H](CC(C)C)C(=O)N[C@@H](CO)C(=O)N[C@@H](CC(C)C)C(=O)N[C@@H](CC(=O)O)C(=O)N[C@H](C(=O)N1CCC[C@H]1C(=O)N[C@H](C(=O)N[C@@H](CCCCN)C(=O)N[C@@H](CC(C)C)C(=O)N[C@@H](CCCCNC(=O)COCCOCCNC(=O)COCCOCCNC(=O)CC[C@H](NC(=O)CC[C@H](NC(=O)CCCCCCCCCCCCCCCCC(=O)O)C(=O)O)C(=O)O)C(=O)N[C@@H](CCC(N)=O)C(=O)NC(C)(C)C(=O)N[C@@H](CC(C)C)C(=O)N[C@@H](CC(C)C)C(=O)N[C@@H](CCCCN)C(=O)N[C@@H](CCC(N)=O)C(=O)N[C@@H](CCC(=O)O)C(=O)N[C@@H](CCCNC(=N)N)C(=O)N[C@@H](CCC(N)=O)C(=O)N[C@@H](CCCCN)C(=O)N[C@@H](CCCCN)C(=O)N[C@@H](CCC(N)=O)C(=O)N[C@@H](CCCNC(=N)N)C(=O)N[C@@H](CCC(=O)O)C(=O)N[C@@H](CCC(N)=O)C(=O)N[C@@H](C)C(=O)N[C@@H](CCC(=O)O)C(=O)N[C@@H](CCCCN)C(=O)N[C@@H](CC(N)=O)C(=O)NC(C)(C)C(=O)N[C@@H](CCC(N)=O)C(=O)N[C@H](C(=O)N[C@@H](CC(C)C)C(=O)N[C@@H](CCC(=O)O)C(=O)N[C@@H](CCC(N)=O)C(=O)N[C@H](C(N)=O)C(C)C)[C@@H](C)CC)[C@@H](C)CC)C(C)C)C(C)C [compound 26] (Ac-IVLSLDVPIKLK([AEEA-AEEA-γGlu-γGlu-C18 diacid])Q[Aib]LLKQERQKKQREQAEKN[Aib]QILEQV-NH2)	–
